Measured values reported in patent US20190358181A1, “METHODS FOR AUTISM SPECTRUM DISORDER PHARMACOTHERAPY” (priority 2017, published 2019).

What was measured:
Assay type in all cases: in vivo, human
[1] = tested on: males with ASD; experiment: Clinical Global Impression (CGI) 24-question instrument, SAT-1 trial; conditions: for Difference from baseline (mean ± sd) / d (Cohen's d): 45 days after treatment
Protocol: (§1) Two observational examinations were performed by a clinician at 3 time points: baseline (56±8 days; mean±SEM; before the infusion), 2-days post-infusion, and 6-weeks post-infusion. The two examiner-based metrics were the Autism Diagnostic Observation Schedule, 2nd edition (ADOS-2) with video and audio files recorded on 3 cameras, and the Expressive One Word Picture Vocabulary Testing (EOWPVT). Both of these observational metrics were administered by a trained and certified examiner using approved test materials. Three standardized questionnaires were completed by parents at 3 time points: baseline, 7-days post-infusion, and 6-weeks post-infusion. The three standardized questionnaires completed by parents were the 58-question Aberrant Behavior Checklist (ABC), the 75-item Autism Treatment Evaluation Checklist (ATEC), and the 33-item repetitive behavior questionnaire (RBQ). Parents were asked to complete these three instruments with reference to how their child behaved in the previous 7 days. At the end of the six weeks, we included a 24-question Clinical Global Impression (CGI) questionnaire (FIG. 16). In addition, parents were asked to list the 3 top behaviors or symptoms that they observed to be most changed over the previous 6-weeks. To minimize the misinterpretation of natural day-to-day variations in symptoms, parents were asked to mark a symptom as changed in the 6-week CGI only if it had lasted for at least 1 week.
We developed a 24-question Clinical Global Impression (CGI) instrument designed to assess the core symptoms of autism spectrum disorders and some of the most common comorbid features (FIG. 16). The CGI instrument scoring system was the traditional 7-point, CGI-Improvement scale. See, for e.g. Busner and Targum. Psychiatry. 2007(4):28-37. In this scale, the historian gives a score of 0 if the symptom “was never a problem”, a 1 for “very much improved”, a 4 for “no change”, and a 7 for “very much worse”. In addition to the 24 structured questions, we asked the parents to write in the top 3 symptoms or behaviors that were most changed over the 6 weeks since the suramin infusion. This hybrid design of structured and open-ended responses permitted us to capture a large number of clinical outcomes associated with single dose suramin treatment.
(§2) For the test dose, 50 mg of suramin hexasodium (Bayer Pharmaceuticals, Inc.) in 5 mL of saline (experimental arm, 5 patients), or 5 mL of saline only (control arm, 5 patients) were given by slow intravenous (IV) push over 3 minutes, followed by a 10 mL flush of saline. One hour after the test dose, vital signs were repeated and a single infusion of either suramin (20 mg/kg, minus the 50 mg test dose, in 50 mL, up to a maximum of 1 gram) or saline (50 mL IV) was given over 30 minutes, followed by a 10 mL flush of saline.
Behavioral and neurological effects of treatment were assessed primarily by the examiner-based ADOS-2 protocol scores and standardized vocabulary testing (Expressive One Word Picture Vocabulary Test, EOWPVT), with secondary evaluation via parent-based assessments (Aberrant Behavior Checklist (ABC) scores, Autism Treatment Evaluation Checklist (ATEC) scores, Clinical Global Impression of Improvement (CGI) scores, and Repetitive Behavior Questionnaire (RBQ) scores). See General Methods for information related to behavioral test administration. Prior to the study, diagnosis of each of the enrolled participants was confirmed by ADOS-2 comparison scores of ≥7, and non-verbal IQ was tested by Leiter-3 examination. Examiner-based outcomes (ADOS and EOWPVT) were assessed at 2-days and 6-weeks after the infusion. Parent-based outcomes (ABC, ATEC, CGI, and RBQ) were assessed at 7-days and 6-weeks after the infusion. To minimize the effects of natural behavioral variability, the parents were instructed to mark a behavior as changed only if it was persistently changed for at least 1 week. […]

[2] = tested on: males with ASD; experiment: Aberrant Behavior Checklist (ABC), parent questionnaire, SAT-1 trial; conditions: ABC Stereotypy
Protocol: as §1, with “week. […]” for “week.”
Behavioral and neurological effects of treatment were assessed primarily by the examiner-based ADOS-2 protocol scores and standardized vocabulary testing (Expressive One Word Picture Vocabulary Test, EOWPVT), with secondary evaluation via parent-based assessments (Aberrant Behavior Checklist (ABC) scores, Autism Treatment Evaluation Checklist (ATEC) scores, Clinical Global Impression of Improvement (CGI) scores, and Repetitive Behavior Questionnaire (RBQ) scores). […] Examiner-based outcomes (ADOS and EOWPVT) were assessed at 2-days and 6-weeks after the infusion. Parent-based outcomes (ABC, ATEC, CGI, and RBQ) were assessed at 7-days and 6-weeks after the infusion. […]
Each child was used as their own control to examine before and after treatment effects from Example 1 in a paired t-test design for the analysis of the ADOS, EOWPVT, ABC, ATEC, RBQ (FIGS. 4-11 show individual analyses), and blood and urine safety data (FIGS. 2 and 3 show individual analyses). […] Categorical data, such as the presence or absence of adverse events or historical symptoms was analyzed by Fisher's exact test. […] Cohen's d—calculated as the mean difference of the paired, within-subject scores before and after treatment, divided by the standard deviation of the differences—was used as an estimate of effect size.

[3] = tested on: males with ASD; experiment: ADOS-2 (Autism Diagnostic Observation Schedule, 2nd edition), SAT-1 trial, single 20 mg/kg IV suramin infusion; conditions: for Difference from baseline (mean ± sd) / d (Cohen's d): 45 days after treatment
Protocol: as §1
All children met DSM-5 diagnostic criteria for autism spectrum disorders, and received confirmatory testing by Autism Diagnostic Observation Schedule, 2nd edition (ADOS-2) examination. Inclusion criteria included males, ages 4-17 years, living in the San Diego, Calif. region, with a confirmed diagnosis of ASD.
as §2
Behavioral and neurological effects of treatment were assessed primarily by the examiner-based ADOS-2 protocol scores and standardized vocabulary testing (Expressive One Word Picture Vocabulary Test, EOWPVT), with secondary evaluation via parent-based assessments (Aberrant Behavior Checklist (ABC) scores, Autism Treatment Evaluation Checklist (ATEC) scores, Clinical Global Impression of Improvement (CGI) scores, and Repetitive Behavior Questionnaire (RBQ) scores). See General Methods for information related to behavioral test administration. Prior to the study, diagnosis of each of the enrolled participants was confirmed by ADOS-2 comparison scores of ≥7, and non-verbal IQ was tested by Leiter-3 examination. Examiner-based outcomes (ADOS and EOWPVT) were assessed at 2-days and 6-weeks after the infusion. Parent-based outcomes (ABC, ATEC, CGI, and RBQ) were assessed at 7-days and 6-weeks after the infusion. To minimize the effects of natural behavioral variability, the parents were instructed to mark a behavior as changed only if it was persistently changed for at least 1 week.
Each child was used as their own control to examine before and after treatment effects from Example 1 in a paired t-test design for the analysis of the ADOS, EOWPVT, ABC, ATEC, RBQ (FIGS. 4-11 show individual analyses), and blood and urine safety data (FIGS. 2 and 3 show individual analyses). Paired, non-parametric analysis was by Wilcoxon signed-rank sum test. Categorical data, such as the presence or absence of adverse events or historical symptoms was analyzed by Fisher's exact test. […]

Compound: Cc1ccc(C(=O)Nc2ccc(S(=O)(=O)O)c3cc(S(=O)(=O)O)cc(S(=O)(=O)O)c23)cc1NC(=O)c1cccc(NC(=O)Nc2cccc(C(=O)Nc3cc(C(=O)Nc4ccc(S(=O)(=O)O)c5cc(S(=O)(=O)O)cc(S(=O)(=O)O)c45)ccc3C)c2)c1 [Suramin, suramin]
- symptoms covered in the CGI that were significant ([1]; 6-weeks, 24 symptoms (FIG. 10C)): Four of 24
- Difference from baseline (mean ± sd) ([1]; CGI E. Language (expressive language)): −2.0 ± 1.04
- d (Cohen's d) ([1]; CGI E. Language): 1.9
- Difference from baseline (mean ± sd) ([1]; CGI Overall ASD symptoms): −1.8 ± 1.04
- d (Cohen's d) ([1]; CGI Overall ASD symptoms): 1.7
- Difference from baseline (mean ± sd) ([1]; CGI Social Inter. (social interaction)): −2.0 ± 1.04
- d (Cohen's d) ([1]; CGI Social Inter.): 1.9
- Difference from baseline (mean ± sd) ([2]; 7 days after treatment): −3.6 ± 2.1
- d (Cohen's d) ([2]; 7 days after treatment): 1.7
- Difference from baseline (mean ± sd) ([2]; 45 days after treatment): −4.0 ± 2.3
- d (Cohen's d) ([2]; 45 days after treatment): 1.7
- mean ADOS comparison score ([3]; 6-weeks after suramin (8.6±0.4 at baseline)): 7.0±0.3
- ADOS-2 comparison scores improved by an average of (mean±SD) ([3]; 6-weeks, suramin treatment group, n=5): −1.6±0.55 points
- 2-day ADOS scores ([3]; 2 days after suramin (FIG. 10A)): no change
- Difference from baseline (mean ± sd) ([3]; ADOS-2 Comparison): −1.6 ± 0.55
- d (Cohen's d) ([3]; ADOS-2 Comparison): 2.9
- Difference from baseline (mean ± sd) ([3]; ADOS-2 Raw): −4.6 ± 1.9
- d (Cohen's d) ([3]; ADOS-2 Raw): 2.4
- Difference from baseline (mean ± sd) ([3]; ADOS-2 Restr/Rep (restricted or repetitive behaviors)): −1.4 ± 0.89
- d (Cohen's d) ([3]; ADOS-2 Restr/Rep): 1.6
- Difference from baseline (mean ± sd) ([3]; ADOS-2 Social): −3.2 ± 1.9
- d (Cohen's d) ([3]; ADOS-2 Social): 1.7
